pIC50: −log10 of the molar value.
Biological target: 11-beta-hydroxysteroid dehydrogenase 1 (Homo sapiens, UniProt P28845)
Test: Inhibition of 11beta-HSD1 in human mixed sex human liver microsomes assessed as reduction in conversion of [3H]-cortisone to [3H]-cortisol pre-incubated for 15 mins before [3H]-cortisone addition in presence of NADPH by scintillation proximity assay

Sequence of 11-beta-hydroxysteroid dehydrogenase 1 (P28845 whole entry): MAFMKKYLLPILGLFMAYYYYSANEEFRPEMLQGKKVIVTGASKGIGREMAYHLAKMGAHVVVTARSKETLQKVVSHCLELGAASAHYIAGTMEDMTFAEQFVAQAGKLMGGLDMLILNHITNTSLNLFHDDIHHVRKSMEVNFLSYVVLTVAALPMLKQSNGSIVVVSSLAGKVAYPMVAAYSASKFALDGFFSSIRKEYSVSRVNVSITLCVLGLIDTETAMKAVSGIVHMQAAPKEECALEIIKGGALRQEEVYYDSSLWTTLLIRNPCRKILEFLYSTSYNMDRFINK

O=C(NC1C2CC3CC(C2)CC1C3)C1CCCCC1 (stereo unspecified)
pIC50: 7.07

Source: ChEMBL document CHEMBL3616375, “Novel 11β-HSD1 inhibitors: C-1 versus C-2 substitution and effect of the introduction of an oxygen atom in the adamantane scaffold” (Bioorg Med Chem Lett, 2015)
